# Measured values reported in patent US6716866B2, “Aryl-benzimidazole compounds having antiinfective activity” (GeneSoft Pharmaceuticals, Inc., priority 2001, dated 2004).
# Columns and labels:
# [1] = tested on: E. faecalis ATCC 29212; assay: NCCLS broth microdilution MIC, E. faecalis ATCC 29212; assay type: cell-based; conditions: organism D = E. faecalis ATCC 29212
# Protocol: (§1) Compounds according to this invention were screened for their in vitro activities against selected species of bacteria and fungi. The minimal inhibition concentration (MIC) of these compounds was determined using the National Committee for Clinical Laboratory Standards (NCCLS) broth microdilution assay in microtiter plates, as set forth in: (1) the guidelines of the National Committee for Clinical Laboratory Standards (NCCLS) Document M7-A4 (NCCLS, 1997); (2) the guidelines of the National Committee for Clinical Laboratory Standards (NCCLS) Document M11-A4 (NCCLS, 1997); and (3) the guidelines and reference method of the National Committee for Clinical Laboratory Standards (NCCLS) Document M27-T (NCCLS, 1995). For antifungal essays, the method recommended in Murray, PR., 1995 Manual of Clinical Microbiology (ASM Press, Washington, D.C.), was employed.
# [2] = tested on: C. albicans ATCC 38247; assay: NCCLS broth microdilution MIC (antifungal), C. albicans ATCC 38247; assay type: cell-based; conditions: organism B = C. albicans ATCC 38247
# Protocol: as §1
# [3] = tested on: E. coli ATCC 25922; assay: NCCLS broth microdilution MIC, E. coli ATCC 25922; assay type: cell-based; conditions: organism C = E. coli ATCC 25922
# Protocol: as §1
# [4] = tested on: S. aureus ATCC 29213; assay: NCCLS broth microdilution MIC, S. aureus ATCC 29213; assay type: cell-based; conditions: organism G = S. aureus ATCC 29213
# Protocol: as §1
# [5] = tested on: B. cereus ATCC 11778; assay: NCCLS broth microdilution MIC, B. cereus ATCC 11778; assay type: cell-based; conditions: organism A = B. cereus ATCC 11778
# Protocol: as §1
# [6] = tested on: S. pneumoniae ATCC 49619; assay: NCCLS broth microdilution MIC, S. pneumoniae ATCC 49619; assay type: cell-based; conditions: organism F = S. pneumoniae ATCC 49619
# Protocol: as §1
# [7] = tested on: DNA sequence AGTACT; assay: Quantitative DNase I footprint titration, site AGTACT; assay type: binding; conditions: DNase I footprinting, pH 7.0, 22° C.
# Protocol: (§2) A number of compounds according to this invention were screened for their ability to bind to three DNA sites, using DNase I footprinting.
# (§3) The target sites and their complements are identified in bold underline.
# (§4) The resulting duplexes were ligated to the large pUC19 XbaI/Pstl restriction fragment. […] (Sambrook et al., ibid.)
# (§5) The polyamides were allowed to equilbrate at 22° C. for 16 h.
# [8] = tested on: DNA sequence ACTACT; assay: Quantitative DNase I footprint titration, site ACTACT; assay type: binding; conditions: DNase I footprinting, pH 7.0, 22° C.
# Protocol: as §2, §3, §4, §5
# [9] = tested on: DNA sequence ATTACT; assay: Quantitative DNase I footprint titration, site ATTACT; assay type: binding; conditions: DNase I footprinting, pH 7.0, 22° C.
# Protocol: as §2, §3, §4, §5
# [10] = tested on: DNA sequence AATACT; assay: Quantitative DNase I footprint titration, site AATACT; assay type: binding; conditions: DNase I footprinting, pH 7.0, 22° C.
# Protocol: as §2, §3, §4, §5
# [11] = tested on: DNA sequence ACTAGT; assay: Quantitative DNase I footprint titration, site ACTAGT; assay type: binding; conditions: DNase I footprinting, pH 7.0, 22° C.
# Protocol: as §2, §3, §4, §5
# [12] = tested on: E. faecium ATCC 51559; assay: MIC against drug-resistant bacteria, E. faecium ATCC 51559; assay type: cell-based; conditions: organism A = E. faecium ATCC 51559, vancomycin resistant strain (VRE)
# Protocol: as §1
# (§6) Further, compounds (I) are effective against drug-resistant bacteria, as evidenced by the data in Table 2 below:
# (§7) ATCC 27660 and ATCC 33591 are methycillin resistant strains of S. aureus (MRSA's). ATCC 51559 is a vancomycin resistant strain of E. faecium (VRE). ATCC 12228 is a methycillin resistant strain of S. epidermis (MRSE). ATCC 51422 is a penicillin resistant strain of S. pneumoniae.
# [13] = tested on: S. aureus ATCC 33591; assay: MIC against drug-resistant bacteria, S. aureus ATCC 33591; assay type: cell-based; conditions: organism C = S. aureus ATCC 33591, methycillin resistant strain (MRSA)
# Protocol: as §1, §6, §7
# [14] = tested on: S. pneumoniae ATCC 51422; assay: MIC against drug-resistant bacteria, S. pneumoniae ATCC 51422; assay type: cell-based; conditions: organism E = S. pneumoniae ATCC 51422, penicillin resistant strain
# Protocol: as §1, §6, §7
# [15] = tested on: S. epidermis ATCC 12228; assay: MIC against drug-resistant bacteria, S. epidermis ATCC 12228; assay type: cell-based; conditions: organism D = S. epidermis ATCC 12228, methycillin resistant strain (MRSE)
# Protocol: as §1, §6, §7
# [16] = tested on: S. aureus ATCC 27660; assay: MIC against drug-resistant bacteria, S. aureus ATCC 27660; assay type: cell-based; conditions: organism B = S. aureus ATCC 27660, methycillin resistant strain (MRSA)
# Protocol: as §1, §6, §7
# [17] = tested on: S. aureus ATCC 13709; assay: NCCLS broth microdilution MIC, S. aureus ATCC 13709; assay type: cell-based; conditions: organism E = S. aureus ATCC 13709
# Protocol: as §1
Compound,Minimum Inhibitory Concentration (MIC) [1],Minimum Inhibitory Concentration (MIC) [2],Minimum Inhibitory Concentration (MIC) [3],Minimum Inhibitory Concentration (MIC) [4],Minimum Inhibitory Concentration (MIC) [5],Minimum Inhibitory Concentration (MIC) [6],"Association Constant, Ka [7]","Association Constant, Ka [8]","Association Constant, Ka [9]","Association Constant, Ka [10]","Association Constant, Ka [11]",Minimum Inhibitoty Concentration (MIC) [12],Minimum Inhibitoty Concentration (MIC) [13],Minimum Inhibitoty Concentration (MIC) [14],Minimum Inhibitoty Concentration (MIC) [15],Minimum Inhibitoty Concentration (MIC) [16],Minimum Inhibitory Concentration (MIC) [17]
CN(C)CCCNC(=O)CCNC(=O)c1cc(NC(=O)c2cc(NC(=O)c3cc(NC(=O)c4nc(NC(=O)CCCNC(=O)c5cc(NC(=O)c6cc(NC(=O)c7ccc8nc(-c9nccn9C)[nH]c8c7)cn6C)cn5C)cn4C)cn3C)cn2C)cn1C [Compound I-8],,,,,,,1e+11 M⁻¹,5e+09 M⁻¹,5e+09 M⁻¹,1e+09 M⁻¹,<1e+08 M⁻¹,,,,,,
CN(C)CCCNC(=O)CCNC(=O)c1cc(NC(=O)c2cc(NC(=O)CCNC(=O)c3cc(NC(=O)c4ccc5nc(-c6cc(Br)c(Br)s6)[nH]c5c4)cn3C)cn2C)cn1C [Compound I-6],>32 µg/mL,>32 µg/mL,>32 µg/mL,>32 µg/mL,>32 µg/mL,>32 µg/mL,,,,,,,,,,,
"CN(C)CCCNC(=O)CCNC(=O)c1cc(NC(=O)c2cc(NC(=O)c3cc(NC(=O)c4nc(NC(=O)CCCNC(=O)c5cc(NC(=O)c6cc(NC(=O)c7cc(NC(=O)c8nsc(NCCCN(C)C)c8Cl)cn7C)cn6C)cn5C)cn4C)cn3C)cn2C)cn1C [B, reference compound]",,,,,,,1e+11 M⁻¹,7e+09 M⁻¹,7e+09 M⁻¹,7e+09 M⁻¹,<1e+08 M⁻¹,,,,,,
"CN(C)CCCNC(=O)CCNC(=O)c1cc(NC(=O)c2cc(NC(=O)c3cc(NC(=O)c4nc(NC(=O)CCCNC(=O)c5cc(NC(=O)c6cc(NC(=O)c7cc(NC(=O)c8nccn8C)cn7C)cn6C)cn5C)cn4C)cn3C)cn2C)cn1C [Compound A, reference compound]",,,,,,,3e+09 M⁻¹,5e+08 M⁻¹,5e+08 M⁻¹,500000 M⁻¹,<1e+08 M⁻¹,,,,,,
Cn1cc(NC(=O)c2ccc3nc(-c4sccc4Cl)[nH]c3c2)cc1-c1nc2ccc(C(=O)NCCN3CCOCC3)cc2[nH]1 [Compound I-1],+++ (MIC ≦4),>32 µg/mL,>32 µg/mL,,+++ (MIC ≦4),+++ (MIC ≦4),,,,,,,,,,+++ (MIC ≦4),+++ (MIC ≦4)
CN(C)CCCNC(=O)CCNC(=O)c1cc(NC(=O)c2cc(NC(=O)c3cc(NC(=O)c4nc(NC(=O)CCCNC(=O)c5cc(NC(=O)c6cc(NC(=O)c7ccc8nc(-c9nsc(Cl)c9Cl)[nH]c8c7)cn6C)cn5C)cn4C)cn3C)cn2C)cn1C [Compound I-9],,,,,,,1e+11 M⁻¹,5e+09 M⁻¹,5e+09 M⁻¹,1e+09 M⁻¹,<1e+08 M⁻¹,,,,,,

# Next, values leading:
Minimum Inhibitory Concentration (MIC) [1],Minimum Inhibitory Concentration (MIC) [2],Minimum Inhibitory Concentration (MIC) [3],Minimum Inhibitory Concentration (MIC) [4],Minimum Inhibitory Concentration (MIC) [5],Minimum Inhibitory Concentration (MIC) [6],"Association Constant, Ka [7]","Association Constant, Ka [8]","Association Constant, Ka [9]","Association Constant, Ka [10]","Association Constant, Ka [11]",Minimum Inhibitoty Concentration (MIC) [12],Minimum Inhibitoty Concentration (MIC) [13],Minimum Inhibitoty Concentration (MIC) [14],Minimum Inhibitoty Concentration (MIC) [15],Minimum Inhibitoty Concentration (MIC) [16],Minimum Inhibitory Concentration (MIC) [17],Compound
>32 µg/mL,>32 µg/mL,>32 µg/mL,"+ (MIC from 12 to 32, inclusive)",>32 µg/mL,+++ (MIC ≦4),,,,,,,,,,,,Cn1cc(NC(=O)c2cc(NC(=O)c3ccc4nc(-c5sccc5Cl)[nH]c4c3)cn2C)cc1C(=O)NCCN1CCOCC1 [Compound I-4]
+++ (MIC ≦4),>32 µg/mL,>32 µg/mL,,+++ (MIC ≦4),+++ (MIC ≦4),,,,,,+++ (MIC ≦4),+++ (MIC ≦4),+++ (MIC ≦4),+++ (MIC ≦4),+++ (MIC ≦4),+++ (MIC ≦4),Cn1cc(NC(=O)c2ccc3nc(-c4cc(NC(=O)c5sccc5Cl)cn4C)[nH]c3c2)cc1C(=O)NCCN1CCOCC1 [Compound I-2]
+++ (MIC ≦4),>32 µg/mL,+++ (MIC ≦4),,+++ (MIC ≦4),+++ (MIC ≦4),,,,,,+++ (MIC ≦4),,+++ (MIC ≦4),+++ (MIC ≦4),+++ (MIC ≦4),+++ (MIC ≦4),Cn1cc(NC(=O)c2sccc2Cl)cc1C(=O)Nc1cc(-c2nc3ccc(C(=O)NCCN4CCOCC4)cc3[nH]2)n(C)c1 [Compound I-3]
>32 µg/mL,>32 µg/mL,>32 µg/mL,>32 µg/mL,>32 µg/mL,>32 µg/mL,,,,,,,,,,,,Cn1cc(NC(=O)c2cc(NC(=O)c3ccc4nc(-c5sc6ccccc6c5Cl)[nH]c4c3)cn2C)cc1C(=O)NCCN1CCOCC1 [Compound I-5]
,,,,,,,,,,,+++ (MIC ≦4),+++ (MIC ≦4),+++ (MIC ≦4),+++ (MIC ≦4),+++ (MIC ≦4),,Cn1cc(NC(=O)c2ccc3nc(-c4cc(NC(=O)c5ccc(F)cc5F)cn4C)[nH]c3c2)cc1C(=O)NCCN1CCOCC1 [Compound I-39]
,,,,,,,,,,,+++ (MIC ≦4),+++ (MIC ≦4),+++ (MIC ≦4),+++ (MIC ≦4),+++ (MIC ≦4),,Cn1cc(NC(=O)c2ccc(Cl)cc2F)cc1C(=O)Nc1cc(-c2nc3ccc(C(=O)NCCN4CCSCC4)cc3[nH]2)n(C)c1 [Compound I-14]
